Measured values taken from patent US20190209650A1, “METHOD TO IMPROVE THE EFFECTIVENESS OF ANTI-CANCER THERAPIES BY EXPOSING CANCER CELLS TO AN INFLAMMATORY STIMULUS PRIOR TO TREATMENT” (priority 2016, published 2019).

Test system: SW620 colorectal cancer cell line
Assay: Flow cytometry of EpCAM positive cells and cancer stem cell (CD44+CD133-) subpopulation after incubation with cytokines
Assay type: cell-based, human
Settings: for % Gated, R4 (CD44FITC, CD133 PE) / % Total, R4 (CD44FITC, CD133 PE): population R4 & R14 & R2 & R1; for % Gated, R5 (CD44FITC, CD133 PE) / % Total, R5 (CD44FITC, CD133 PE): population R5 & R14 & R2 & R1; for % Gated, R6 (CD44FITC, CD133 PE) / % Total, R6 (CD44FITC, CD133 PE): population R6 & R14 & R2 & R1; for % Gated, R7 Cancer Stem Cell (CSC) (CD44+CD133-) / % Total, R7 Cancer Stem Cell (CSC) (CD44+CD133-): population R7 & R14 & R2 & R1; for % Gated, R8 (CD44FITC, EpCAMefluor710) / % Total, R8 (CD44FITC, EpCAMefluor710): population R8 & R14 & R2 & R1; for % Gated, R9 EpCAM positive Cells (CD44FITC, EpCAMefluor710) / % Total, R9 EpCAM positive Cells (CD44FITC, EpCAMefluor710): population R9 & R14 & R2 & R1; for % Gated, R10 EpCAM positive Cells (CD44FITC, EpCAMefluor710) / % Total, R10 EpCAM positive Cells (CD44FITC, EpCAMefluor710): population R10 & R14 & R2 & R1; for % Gated, R11 (CD44FITC, EpCAMefluor710) / % Total, R11 (CD44FITC, EpCAMefluor710): population R11 & R14 & R2 & R1
Description: This number returned to near baseline 21% at 48 hours. […] This change was transient, occurring within 24 hours and rapidly returning to baseline.
The data from the scatter plots of FIGS. 1A-1H, 2A-2H, and 3A-3H are reproduced below in Tables 1-3.
Based on the above data of potentiating the effectiveness of chemotherapy by exposing cancer cells to specific cytokines such as HGF and or Il-6 within a time limited fashion, the mechanism behind this ability to sensitize cancer cells may not simply be triggering cellular proliferation. Specific cytokine exposures can transiently cause a cancer cell population to differentiate away from a more stem cell enriched, mesenchymal phenotype towards a more differentiated, epithelial cell population more sensitive to the effects of anti-cancer therapies (see Tables 1-3).
In particular, exposure to a control population of SW620 colorectal cancer cell line to HGF at a concentration of 10 ng per ml for 24 hours caused the control putative stem cell population (CD44+/CD133−) to drop from 33% at baseline (see Table 1, R7 region, CD 44 positive/CD133 negative) to 1% (see Table 2, R7, region CD 44 positive/CD133 negative). This drop was transient, as exposure to the same cell line for 48 hours of HGF at 10 ng per ml transitioned the phenotypic distribution back towards a stem cell enriched phenotype with 23% putative stem cells (see Table 3, R7 region, CD 44 positive/CD133 negative).

In the case of IL6: Interleukin 6, cytokine, the “% Gated, R4 (CD44FITC, CD133 PE)” value (0 hour incubation) is reported as 48.6%, the “% Total, R4 (CD44FITC, CD133 PE)” value (0 hour incubation) is reported as 45.1% and the “% Gated, R5 (CD44FITC, CD133 PE)” value (0 hour incubation) is reported as 3.48%. The “% Total, R5 (CD44FITC, CD133 PE)” value (0 hour incubation) was 3.23%, the “% Gated, R6 (CD44FITC, CD133 PE)” value (0 hour incubation) was 13.9% and the “% Total, R6 (CD44FITC, CD133 PE)” value (0 hour incubation) was 12.9%. For the same substance, the “% Gated, R7 Cancer Stem Cell (CSC) (CD44+CD133-)” value (from here on “% Gated, R7 Cancer Stem Cell”) (0 hour incubation) was 34.2%, the “% Total, R7 Cancer Stem Cell (CSC) (CD44+CD133-)” value (“% Total, R7 Cancer Stem Cell” for short) (0 hour incubation) was 31.7% and the “% Gated, R8 (CD44FITC, EpCAMefluor710)” value (0 hour incubation) was 5.15%. The “% Total, R8 (CD44FITC, EpCAMefluor710)” value (0 hour incubation) was 4.78%, the “% Gated, R9 EpCAM positive Cells (CD44FITC, EpCAMefluor710)” value (“% Gated, R9 EpCAM positive Cells” for short) (0 hour incubation) was 53% and the “% Total, R9 EpCAM positive Cells (CD44FITC, EpCAMefluor710)” value (shortened to “% Total, R9 EpCAM positive Cells”) (0 hour incubation) was 49.2%. For the same substance, the “% Gated, R10 EpCAM positive Cells (CD44FITC, EpCAMefluor710)” value (“% Gated, R10 EpCAM positive Cells” below) (0 hour incubation) was 39%, the “% Total, R10 EpCAM positive Cells (CD44FITC, EpCAMefluor710)” value (shortened to “% Total, R10 EpCAM positive Cells”) (0 hour incubation) was 36.1% and the “% Gated, R11 (CD44FITC, EpCAMefluor710)” value (0 hour incubation) was 2.42%. The “% Total, R11 (CD44FITC, EpCAMefluor710)” value (0 hour incubation) was 2.24%, the “% Gated, R4 (CD44FITC, CD133 PE)” value (24 h incubation) was 41.1% and the “% Total, R4 (CD44FITC, CD133 PE)” value (24 h incubation) was 33.4%. For the same substance, the “% Gated, R5 (CD44FITC, CD133 PE)” value (24 h incubation) was 7.69%, the “% Total, R5 (CD44FITC, CD133 PE)” value (24 h incubation) was 6.27% and the “% Gated, R6 (CD44FITC, CD133 PE)” value (24 h incubation) was 28.8%. For the same substance, the “% Total, R6 (CD44FITC, CD133 PE)” value (24 h incubation) was 23.4%, the “% Gated, R7 Cancer Stem Cell” value (24 h incubation) was 22.3% and the “% Total, R7 Cancer Stem Cell” value (24 h incubation) was 18.1%. For the same substance, the “% Gated, R8 (CD44FITC, EpCAMefluor710)” value (24 h incubation) was 5.35%, the “% Total, R8 (CD44FITC, EpCAMefluor710)” value (24 h incubation) was 4.36% and the “% Gated, R9 EpCAM positive Cells” value (24 h incubation) was 48.4%. The “% Total, R9 EpCAM positive Cells” value (24 h incubation) was 39.4%, the “% Gated, R10 EpCAM positive Cells” value (24 h incubation) was 45.2% and the “% Total, R10 EpCAM positive Cells” value (24 h incubation) was 36.8%. For the same substance, the “% Gated, R11 (CD44FITC, EpCAMefluor710)” value (24 h incubation) was 1.94%, the “% Total, R11 (CD44FITC, EpCAMefluor710)” value (24 h incubation) was 1.58% and the “% Gated, R4 (CD44FITC, CD133 PE)” value (48 h incubation) was 37.5%. The “% Total, R4 (CD44FITC, CD133 PE)” value (48 h incubation) was 33.7%, the “% Gated, R5 (CD44FITC, CD133 PE)” value (48 h incubation) was 7.38% and the “% Total, R5 (CD44FITC, CD133 PE)” value (48 h incubation) was 6.64%. For the same substance, the “% Gated, R6 (CD44FITC, CD133 PE)” value (48 h incubation) was 30.7%, the “% Total, R6 (CD44FITC, CD133 PE)” value (48 h incubation) was 27.6% and the “% Gated, R7 Cancer Stem Cell” value (48 h incubation) was 25.1%. For the same substance, the “% Total, R7 Cancer Stem Cell” value (48 h incubation) was 22.6%, the “% Gated, R8 (CD44FITC, EpCAMefluor710)” value (48 h incubation) was 26% and the “% Total, R8 (CD44FITC, EpCAMefluor710)” value (48 h incubation) was 23.4%. The “% Gated, R9 EpCAM positive Cells” value (48 h incubation) was 27.6%, the “% Total, R9 EpCAM positive Cells” value (48 h incubation) was 24.8% and the “% Gated, R10 EpCAM positive Cells” value (48 h incubation) was 26%. The “% Total, R10 EpCAM positive Cells” value (48 h incubation) was 23.3%, the “% Gated, R11 (CD44FITC, EpCAMefluor710)” value (48 h incubation) was 21.4% and the “% Total, R11 (CD44FITC, EpCAMefluor710)” value (48 h incubation) was 19.3%.
